The target in experiment [1] is KIT D816V kinase activity (KIT autophosphorylation at tyrosine 719) in HMC1.2 cells (Homo sapiens (Human), UniProt P10721, D816V/V560G). The experiment in a line: HMC1.2 autophosphorylation assay (phospho-Y719 c-KIT AlphaLISA). Type of experiment: cell-based. The following applies: HMC1.2 mast cell leukemia cell line (KIT V560G, D816V), 90 minutes compound; read-out: INH-KIT-PHOS-HMC1.2. In general terms: Alpha assays give light when donor and acceptor beads are brought close together.

Experiment [2] has as its target D816V KIT (Homo sapiens (Human), UniProt P10721, D816V). The experiment in a line: KIT D816V assay at Km (Caliper electrophoretic mobility shift). The note with it: biochemical, 15 uM ATP (Km), 90 minutes at 25 C; read-out: INH KIT D816V.

Sequence of KIT D816V kinase activity (KIT autophosphorylation at tyrosine 719) in HMC1.2 cells (P10721 26-976 V560G/D816V): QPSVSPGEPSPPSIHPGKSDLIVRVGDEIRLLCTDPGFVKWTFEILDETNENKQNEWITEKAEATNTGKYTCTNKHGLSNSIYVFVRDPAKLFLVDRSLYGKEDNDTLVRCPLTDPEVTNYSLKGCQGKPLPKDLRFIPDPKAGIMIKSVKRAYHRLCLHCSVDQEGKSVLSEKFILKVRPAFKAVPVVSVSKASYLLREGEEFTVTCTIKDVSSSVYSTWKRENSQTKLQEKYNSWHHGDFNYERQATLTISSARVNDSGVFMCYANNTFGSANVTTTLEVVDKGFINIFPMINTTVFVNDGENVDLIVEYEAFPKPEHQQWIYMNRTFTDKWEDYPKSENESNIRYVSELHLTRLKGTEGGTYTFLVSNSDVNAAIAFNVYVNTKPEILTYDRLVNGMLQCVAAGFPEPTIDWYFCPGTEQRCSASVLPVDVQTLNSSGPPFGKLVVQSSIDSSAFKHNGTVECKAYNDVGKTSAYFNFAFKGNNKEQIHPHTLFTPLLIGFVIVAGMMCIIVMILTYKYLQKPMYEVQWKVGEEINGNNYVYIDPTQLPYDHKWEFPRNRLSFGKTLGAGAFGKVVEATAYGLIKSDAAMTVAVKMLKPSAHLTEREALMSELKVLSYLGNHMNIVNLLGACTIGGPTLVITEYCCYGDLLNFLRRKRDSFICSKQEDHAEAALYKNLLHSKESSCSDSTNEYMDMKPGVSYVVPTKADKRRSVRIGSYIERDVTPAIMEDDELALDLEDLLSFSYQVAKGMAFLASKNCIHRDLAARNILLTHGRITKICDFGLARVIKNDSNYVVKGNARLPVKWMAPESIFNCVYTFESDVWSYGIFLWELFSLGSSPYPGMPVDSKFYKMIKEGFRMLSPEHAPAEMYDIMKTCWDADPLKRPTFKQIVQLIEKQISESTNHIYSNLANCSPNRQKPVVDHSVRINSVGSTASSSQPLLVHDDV
Sequence of D816V KIT (P10721 26-976 D816V): as the sequence (P10721 26-976 V560G/D816V) above, with G535V counted along it

Consider `C[C@](N)(c1ccccc1)c1cnc(N2CCN(c3ncnn4cc(-c5cn[nH]c5)cc34)CC2)nc1` (single isomer, unassigned) [Compound 12], for which the IC50 in experiment [1] was less than 50 nM.

Turning to `CC[C@H](c1ccc(F)cc1)c1cnc(N2CCN(c3ncnn4cc(-c5cnn(C)c5)cc34)CC2)nc1` (single isomer, unassigned) [Compound 40], the IC50 lay in the range of 1.01 to 10 nM in experiment [2] and 100 to 1000 nM in experiment [1]. For `Cc1cc(-c2cc3c(N4CCN(c5ncc([C@](C)(O)c6ccc(F)cc6)cn5)CC4)ncnn3c2)no1` (single isomer, unassigned) [Compound 51], in experiment [2], the IC50 lay within 10 to 100 nM. Consider `Cc1cc(-c2cc3c(N4CCN(c5ncc([C@@](C)(O)c6ccc(F)cc6)cn5)CC4)ncnn3c2)no1` (single isomer, unassigned) [Compound 52], for which the IC50 in experiment [2] fell in the range of 1.01 to 10 nM; in experiment [1], 100 to 1000 nM. In the case of `Cc1nn(C)cc1-c1cc2c(N3CCN(c4ncc([C@](C)(O)c5ccc(F)cc5)cn4)CC3)ncnn2c1` (single isomer, unassigned) [Compound 71], the IC50 in experiment [2] was in the range of 1.01 to 10 nM; in experiment [1] it was 50 to 100 nM. Taken in the same sequence, the figures for `Cc1nn(C)cc1-c1cc2c(N3CCN(c4ncc([C@@](C)(O)c5ccc(F)cc5)cn4)CC3)ncnn2c1` (single isomer, unassigned) [Compound 72] were less than 1 nM and less than 50 nM. Taken in the same sequence, the figures for `Cn1cc(-c2cn3ncnc(N4CCN(c5ncc(C(C)(O)c6ccc(F)cc6)cn5)CC4)c3c2Cl)cn1` (stereo in doubt) [Compound 107, (S)-1-(2-(4-(5-chloro-6-(1-methyl-1H-pyrazol-4-yl)pyrrolo[1,2-f][1,2,4]triazin-4-yl)piperazin-1-yl)pyrimidin-5-yl)-1-(4-fluorophenyl)ethanol] were greater than 100 nM and 1000 to 10000 nM.

For the molecule `Cn1cc(-c2cc3c(N4CCN(c5ccccc5)CC4)ncnn3c2)cn1` [Compound 1], the IC50 in experiment [2] was greater than 100 nM.

In the case of `COc1ccc(-c2cc3c(N4CCN(c5ccccc5)CC4)ncnn3c2)cc1` [Compound 2], the IC50 was greater than 100 nM in experiment [2] and greater than 10000 nM in experiment [1]. As to `COc1cc(OC)cc(-c2cc3c(N4CCN(c5ccccc5)CC4)ncnn3c2)c1` [Compound 4], the IC50 was greater than 100 nM in experiment [2] and greater than 10000 nM in experiment [1]. `COc1ccc(-c2cc3c(N4CCN(c5ccccc5)CC4)ncnn3c2)cc1OC` [Compound 5]: the results for the IC50 in experiment [2] and in experiment [1] were 10 to 100 nM and 1000 to 10000 nM, respectively. Take `CN(C)C(=O)c1ccc(-c2cc3c(N4CCN(c5ccccc5)CC4)ncnn3c2)cc1` [Compound 6]: the IC50 in experiment [2] was greater than 100 nM; in experiment [1], greater than 10000 nM. Taken in the same sequence, the figures for `C[C@@H]1CN(c2ncnn3cc(-c4cnn(C)c4)cc23)CCN1c1ncc(Cc2ccccc2)cn1` [Compound 8] were 1.01 to 10 nM and 100 to 1000 nM. Taken in the same sequence, the figures for `Cn1cc(-c2cc3c(N4CCN(c5ccc(C(O)c6ccccc6)cn5)CC4)ncnn3c2)cn1` (stereo not drawn) [Compound 11] were 1.01 to 10 nM and 100 to 1000 nM. Taken in the same sequence, the figures for `Cn1cc(-c2cc3c(N4CCN(c5ncc([C@H](N)c6ccccc6)cn5)CC4)ncnn3c2)cn1` [Compound 13, (R)-(2-(4-(6-(1-methyl-1H-pyrazol-4-yl)pyrrolo[2,1-f][1,2,4]triazin-4-yl)piperazin-1-yl)pyrimidin-5-yl)(phenyl)methanamine] were 1.01 to 10 nM and 100 to 1000 nM.

Take `Cn1cc(-c2cc3c(N4CCN(c5ncc(Oc6ccc(F)cc6)cn5)CC4)ncnn3c2)cn1` [Compound 15]: the values for the IC50 in experiment [2] and in experiment [1] were 10 to 100 nM and 100 to 1000 nM, respectively. Taken in the same sequence, the figures for `N#Cc1ccc(-c2cc3c(N4CCN(c5ncc(Cc6ccccc6)cn5)CC4)ncnn3c2)cc1` [Compound 16] were 1.01 to 10 nM and 100 to 1000 nM. Regarding `Cc1c(-c2cc3c(N4CCN(c5ncc(Cc6ccccc6)cn5)[C@H](C)C4)ncnn3c2)cnn1C` [Compound 19], the IC50 was 1.01 to 10 nM in experiment [2] and 100 to 1000 nM in experiment [1]. Taken in the same sequence, the figures for `C=C(c1ccc(F)cc1)c1cnc(N2CCN(c3ncnn4cc(-c5cnn(C)c5)cc34)CC2)nc1` [Compound 23] were 10 to 100 nM and 100 to 1000 nM. For the molecule `Cn1cc(-c2cc3c(N4CCN(c5ncc([C@](C)(O)c6ccccc6)cn5)CC4)ncnn3c2)cn1` [Compound 24], the results for the IC50 in experiment [2] and in experiment [1] were 1.01 to 10 nM and 100 to 1000 nM, respectively. With `Cn1cc(-c2cc3c(N4CCN(c5ncc([C@@](C)(O)c6ccccc6)cn5)CC4)ncnn3c2)cn1` [Compound 25], the IC50 was less than 1 nM in experiment [2] and less than 50 nM in experiment [1]. As for `Cn1cc(-c2cc3c(N4CCN(c5ncc([C@@H](N)c6ccc(F)cc6)cn5)CC4)ncnn3c2)cn1` [Compound 27], the IC50 was 1.01 to 10 nM in experiment [2] and less than 50 nM in experiment [1].

For `Cn1cc(-c2cc3c(N4CCN(c5ncc([C@H](N)c6ccc(F)cc6)cn5)CC4)ncnn3c2)cn1` [Compound 28], the IC50 in experiment [2] is 1.01 to 10 nM; in experiment [1], less than 50 nM. With `Cn1cc(-c2cc3c(N4CCN(c5ncc([C@@H](O)c6ccc(F)cc6)cn5)CC4)ncnn3c2)cn1` [Compound 31], the IC50 was 1.01 to 10 nM in experiment [2] and less than 50 nM in experiment [1]. Taken in the same sequence, the figures for `Cn1cc(-c2cc3c(N4CCN(c5ncc([C@H](O)c6ccc(F)cc6)cn5)CC4)ncnn3c2)cn1` [Compound 32] were 1.01 to 10 nM and less than 50 nM. Taken in the same sequence, the figures for `NC(=O)c1ccc(-c2cc3c(N4CCN(c5ncc(Cc6ccccc6)cn5)CC4)ncnn3c2)cc1` [Compound 33] were 1.01 to 10 nM and 100 to 1000 nM. Taken in the same sequence, the figures for `CN(C)[C@@H](c1ccccc1)c1cnc(N2CCN(c3ncnn4cc(-c5cnn(C)c5)cc34)CC2)nc1` [Compound 36, (S)—N,N-dimethyl-1-(2-(4-(6-(1-methyl-1H-pyrazol-4-yl)pyrrolo[2,1-f][1,2,4]triazin-4-yl)piperazin-1-yl)pyrimidin-5-yl)-1-phenylmethanamine] were 1.01 to 10 nM and 100 to 1000 nM.

Take `CN(C)[C@H](c1ccccc1)c1cnc(N2CCN(c3ncnn4cc(-c5cnn(C)c5)cc34)CC2)nc1` [Compound 37]: the figures for the IC50 in experiment [2] and in experiment [1] were 10 to 100 nM and 1000 to 10000 nM, respectively. Taken in the same sequence, the figures for `Cn1cc(-c2cc3ncnc(N4CCN(c5ncc(C(C)(C)c6ccc(F)cc6)cn5)CC4)n3n2)cn1` [Compound 42] were 10 to 100 nM and 1000 to 10000 nM. Taken in the same sequence, the figures for `Cn1cc(-c2cc3c(N4CCN(c5ncc([C@@](C)(O)c6ccccc6F)cn5)CC4)ncnn3c2)cn1` [Compound 47] were less than 1 nM and less than 50 nM. Taken in the same sequence, the figures for `Cn1cc(-c2cc3c(N4CCN(c5ncc([C@](C)(O)c6ccccc6F)cn5)CC4)ncnn3c2)cn1` [Compound 48] were 1.01 to 10 nM and less than 50 nM.

`Cn1cc(-c2cc3c(N4CCN(c5ncc([C@@H](CO)c6ccc(F)cc6)cn5)CC4)ncnn3c2)cn1` [Compound 49]: the IC50 in experiment [2] is less than 1 nM; in experiment [1] it was less than 50 nM. For the molecule `Cn1cc(-c2cc3c(N4CCN(c5ncc([C@H](CO)c6ccc(F)cc6)cn5)CC4)ncnn3c2)cn1` [Compound 50], the results for the IC50 in experiment [2] and in experiment [1] were 1.01 to 10 nM and less than 50 nM, respectively. Taken in the same sequence, the figures for `Cn1cc(-c2cc3c(N4CCN(c5ncc([C@](C)(O)c6ccc(F)cn6)cn5)CC4)ncnn3c2)cn1` [Compound 53] were 10 to 100 nM and 1000 to 10000 nM. With `Cn1cc(-c2cc3c(N4CCN(c5ncc([C@@](C)(O)c6ccc(F)cn6)cn5)CC4)ncnn3c2)cn1` [Compound 54], the values for the IC50 in experiment [2] and in experiment [1] were 1.01 to 10 nM and 100 to 1000 nM, respectively.

In the case of `C[C@@H]1CN(c2ncnn3cc(-c4cnn(C)c4)cc23)CCN1c1ncc(Sc2ccccc2F)cn1` [Compound 55], the IC50 in experiment [2] was 10 to 100 nM; in experiment [1], 100 to 1000 nM.

Turning to `Cn1cc(-c2cc3c(N4CCN(c5ncc(Sc6ccccc6F)c(N)n5)CC4)ncnn3c2)cn1` [Compound 56], the results for the IC50 in experiment [2] and in experiment [1] were less than 1 nM and less than 50 nM, respectively. Taken in the same sequence, the figures for `Cc1ccc(-c2cc3c(N4CCN(c5ncc([C@@](C)(O)c6ccc(F)cc6)cn5)CC4)ncnn3c2)cc1` [Compound 59] were 10 to 100 nM and 100 to 1000 nM. Taken in the same sequence, the figures for `Cc1ccc(-c2cc3c(N4CCN(c5ncc([C@@](C)(O)c6ccc(F)cc6)cn5)CC4)ncnn3c2)cn1` [Compound 60] were 1.01 to 10 nM and less than 50 nM. Taken in the same sequence, the figures for `Cn1cc(-c2cc3c(N4CCN(c5ncc(C6(c7ccc(F)cc7)COC6)cn5)CC4)ncnn3c2)cn1` [Compound 61] were 1.01 to 10 nM and 100 to 1000 nM. Regarding `CCn1cc(-c2cc3c(N4CCN(c5ncc([C@@](C)(N)c6ccc(F)cc6)cn5)CC4)ncnn3c2)cn1` [Compound 63], the IC50 in experiment [2] is less than 1 nM; in experiment [1], less than 50 nM. Taken in the same sequence, the figures for `C[C@@](O)(c1ccc(F)cc1)c1cnc(N2CCN(c3ncnn4cc(-c5ccc(F)cc5)cc34)CC2)nc1` [Compound 64] were 10 to 100 nM and 100 to 1000 nM. Taken in the same sequence, the figures for `C[C@](O)(c1ccc(F)cc1)c1cnc(N2CCN(c3ncnn4cc(-c5cccc(F)c5)cc34)CC2)nc1` [Compound 66] were 1.01 to 10 nM and 100 to 1000 nM. Regarding `CO[C@@](C)(c1ccc(F)cc1)c1cnc(N2CCN(c3ncnn4cc(-c5cnn(C)c5)cc34)CC2)nc1` [Compound 67], the IC50 in experiment [2] is 10 to 100 nM; in experiment [1], 100 to 1000 nM. Take `CC[C@](O)(c1ccc(F)cc1)c1cnc(N2CCN(c3ncnn4cc(-c5cnn(C)c5)cc34)CC2)nc1` [Compound 69]: the IC50 in experiment [2] lay within 1.01 to 10 nM; in experiment [1] it was 100 to 1000 nM.

As to `CC[C@@](O)(c1ccc(F)cc1)c1cnc(N2CCN(c3ncnn4cc(-c5cnn(C)c5)cc34)CC2)nc1` [Compound 70], the values for the IC50 in experiment [2] and in experiment [1] were 1.01 to 10 nM and less than 50 nM, respectively. For `Cc1cc(F)ccc1[C@](C)(O)c1cnc(N2CCN(c3ncnn4cc(-c5cnn(C)c5)cc34)CC2)nc1` [Compound 80], in experiment [2], the IC50 is 10 to 100 nM.
